In US20240269139A1, “COMPOUNDS FOR TARGETED PROTEIN DEGRADATION OF KINASES” (DANA-FARBER CANCER INSTITUTE, INC., priority 2020, published 2024):
Where two headings read alike, the source gives them in different places.

What was measured:
Assay type in all cases: cell-based
[1] = target: protein kinases (human kinome) (Homo sapiens, UniProt P41240); conditions: experiment wp047
Description: (§1) Although development of targeted protein degraders requires a POI binder, among already-liganded proteins such as kinases, it was hypothesized that different targets would have a different propensity for current approaches to degrader-mediated destruction, which was termed ‘degradability’. […] It was rationalized that the probability of identifying the same kinase as a false positive in multiple treatments is low, therefore this analysis served to also assess the robustness of our data and subsequent interpretations. […] Overall, 62 protein kinases were degraded in more than 10 independent treatments, and remarkably, 9 of these (CDK4, AURKA, FER, WEE1, BLK. LIMK2, CDK6, GAK, LIMK1) were each degraded in at least 40 of the 154 independent treatments, emphasizing their predisposition to induced degradation (FIG. 1G; Appendix I).
(§2) Next, the frequency of degradation assessment was corrected for over-representation of molecules in the full dataset by omitting replicate profiling of compounds under different experimental conditions, to remove any bias. […] Unsurprisingly, the top degradable kinases mirror those from the previous analysis (CDK4, AURKA, FER, WEE1, BLK), confirming that in sufficiently large datasets, even with over-representation of certain molecules, frequency of degradation is a good measure of general tractability.

[2] = target: protein kinases (human kinome) (Homo sapiens, UniProt P51451); conditions: for logFC of BLK: BLK P51451; for logFC of BLK (P51451): down
Description: as §1, §2

[3] = tested on: protein kinases (human kinome); conditions: for logFC LCK: accession P06239-3; for logFC LCK / logFC LCK (P06239-3): direction of change down; for logFC: degrader vs DMSO, down; for logFC GSK3B: experiment wp056
Description: as §1, §2

[4] = target: T1, protein kinases (human kinome) (Homo sapiens, UniProt P42680); conditions: TEC (P42680), experiment wp047
T1 sequence (P42680 1-631): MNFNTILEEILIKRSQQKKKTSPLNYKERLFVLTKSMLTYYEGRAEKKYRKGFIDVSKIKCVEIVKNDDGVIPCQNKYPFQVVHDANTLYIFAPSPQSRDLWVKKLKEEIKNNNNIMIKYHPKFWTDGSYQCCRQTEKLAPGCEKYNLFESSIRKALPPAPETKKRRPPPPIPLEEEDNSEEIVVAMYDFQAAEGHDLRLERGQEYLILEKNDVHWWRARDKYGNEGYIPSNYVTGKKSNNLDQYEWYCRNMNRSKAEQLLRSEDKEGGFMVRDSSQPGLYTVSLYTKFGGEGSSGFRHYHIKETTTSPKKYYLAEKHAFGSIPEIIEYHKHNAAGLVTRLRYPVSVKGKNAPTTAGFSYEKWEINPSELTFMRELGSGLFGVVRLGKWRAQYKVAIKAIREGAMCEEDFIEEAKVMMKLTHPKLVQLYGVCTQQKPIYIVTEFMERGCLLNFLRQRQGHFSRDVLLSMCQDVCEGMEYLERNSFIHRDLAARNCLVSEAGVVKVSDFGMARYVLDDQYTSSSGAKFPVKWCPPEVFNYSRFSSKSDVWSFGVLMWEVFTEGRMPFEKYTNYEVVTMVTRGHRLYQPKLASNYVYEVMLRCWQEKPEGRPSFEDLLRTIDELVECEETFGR
Description: as §1, §2

[5] = target: protein kinases (human kinome) (Homo sapiens, UniProt Q00537); conditions: experiment wp016
Description: as §1, §2

[6] = target: protein kinases (human kinome) (Homo sapiens, UniProt P11802); conditions: experiment wp016
Description: as §1, §2

[7] = target: protein kinases (human kinome) (Homo sapiens, UniProt P30291); conditions: experiment wp016
Description: as §1, §2

[8] = target: T2, protein kinases (human kinome) (Homo sapiens, UniProt Q08881); conditions: experiment wp016
T2 sequence (Q08881 1-620): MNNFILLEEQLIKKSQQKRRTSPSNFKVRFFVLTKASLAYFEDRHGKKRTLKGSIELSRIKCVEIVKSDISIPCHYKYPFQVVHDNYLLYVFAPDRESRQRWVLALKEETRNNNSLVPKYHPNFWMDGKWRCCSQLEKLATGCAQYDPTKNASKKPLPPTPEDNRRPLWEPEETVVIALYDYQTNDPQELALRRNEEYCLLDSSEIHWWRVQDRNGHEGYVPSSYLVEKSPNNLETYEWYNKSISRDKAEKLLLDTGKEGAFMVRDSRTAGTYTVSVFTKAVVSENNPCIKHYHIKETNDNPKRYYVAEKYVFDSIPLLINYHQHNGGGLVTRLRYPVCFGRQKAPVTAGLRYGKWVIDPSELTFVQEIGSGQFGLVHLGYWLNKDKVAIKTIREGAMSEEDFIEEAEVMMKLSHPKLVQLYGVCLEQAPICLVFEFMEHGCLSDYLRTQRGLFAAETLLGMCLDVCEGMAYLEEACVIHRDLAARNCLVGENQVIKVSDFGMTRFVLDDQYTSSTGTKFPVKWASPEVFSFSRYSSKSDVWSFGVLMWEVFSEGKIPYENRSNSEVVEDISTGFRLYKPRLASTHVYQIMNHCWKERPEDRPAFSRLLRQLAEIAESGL
Description: as §1, §2

[9] = target: protein kinases (human kinome) (Homo sapiens, UniProt Q2M2I8)
Description: as §1, §2

[10] = target: protein kinases (human kinome) (Homo sapiens, UniProt P16591)
Description: as §1, §2

[11] = target: protein kinases (human kinome) (Homo sapiens, UniProt P50613)
Description: as §1, §2

[12] = target: protein kinases (human kinome) (Homo sapiens, UniProt Q14289)
Description: as §1, §2

[13] = target: protein kinases (human kinome) (Homo sapiens, UniProt Q9NYV4); conditions: experiment wp016
Description: as §1, §2

[14] = target: protein kinases (human kinome) (Homo sapiens, UniProt P53671); conditions: experiment wp016
Description: as §1, §2

[15] = target: protein kinases (human kinome) (Homo sapiens, UniProt Q00535); conditions: experiment wp016
Description: as §1, §2

[16] = target: protein kinases (human kinome) (Homo sapiens, UniProt O94804); conditions: STK10 (O94804), experiment wp016
Description: as §1, §2

[17] = target: T3, protein kinases (human kinome) (Homo sapiens, UniProt O14965)
T3 sequence (O14965 1-403): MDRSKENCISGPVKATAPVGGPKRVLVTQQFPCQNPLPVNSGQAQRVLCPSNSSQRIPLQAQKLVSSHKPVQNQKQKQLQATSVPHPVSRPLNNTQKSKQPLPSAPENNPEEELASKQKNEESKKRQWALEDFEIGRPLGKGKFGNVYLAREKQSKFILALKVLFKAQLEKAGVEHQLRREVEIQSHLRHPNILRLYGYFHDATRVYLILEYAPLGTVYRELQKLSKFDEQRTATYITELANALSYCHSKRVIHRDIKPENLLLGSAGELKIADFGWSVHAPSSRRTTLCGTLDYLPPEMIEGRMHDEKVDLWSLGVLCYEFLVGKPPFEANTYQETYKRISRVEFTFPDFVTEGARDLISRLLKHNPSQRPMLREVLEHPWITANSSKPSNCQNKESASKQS
Description: as §1, §2

[18] = target: protein kinases (human kinome) (Homo sapiens, UniProt P24941); conditions: experiment wp016
Description: as §1, §2

[19] = target: protein kinases (human kinome) (Homo sapiens, UniProt Q00534)
Description: as §1, §2

[20] = target: protein kinases (human kinome) (Homo sapiens, UniProt Q9NSY1); conditions: BMP2K Q9NSY1; experiment wp056
Description: as §1, §2

[21] = target: protein kinases (human kinome) (Homo sapiens, UniProt P49840); conditions: GSK3A P49840; experiment wp056
Description: as §1, §2

Sequence of protein kinases (human kinome) (Homo sapiens, UniProt Q2M2I8) (Q2M2I8 whole entry): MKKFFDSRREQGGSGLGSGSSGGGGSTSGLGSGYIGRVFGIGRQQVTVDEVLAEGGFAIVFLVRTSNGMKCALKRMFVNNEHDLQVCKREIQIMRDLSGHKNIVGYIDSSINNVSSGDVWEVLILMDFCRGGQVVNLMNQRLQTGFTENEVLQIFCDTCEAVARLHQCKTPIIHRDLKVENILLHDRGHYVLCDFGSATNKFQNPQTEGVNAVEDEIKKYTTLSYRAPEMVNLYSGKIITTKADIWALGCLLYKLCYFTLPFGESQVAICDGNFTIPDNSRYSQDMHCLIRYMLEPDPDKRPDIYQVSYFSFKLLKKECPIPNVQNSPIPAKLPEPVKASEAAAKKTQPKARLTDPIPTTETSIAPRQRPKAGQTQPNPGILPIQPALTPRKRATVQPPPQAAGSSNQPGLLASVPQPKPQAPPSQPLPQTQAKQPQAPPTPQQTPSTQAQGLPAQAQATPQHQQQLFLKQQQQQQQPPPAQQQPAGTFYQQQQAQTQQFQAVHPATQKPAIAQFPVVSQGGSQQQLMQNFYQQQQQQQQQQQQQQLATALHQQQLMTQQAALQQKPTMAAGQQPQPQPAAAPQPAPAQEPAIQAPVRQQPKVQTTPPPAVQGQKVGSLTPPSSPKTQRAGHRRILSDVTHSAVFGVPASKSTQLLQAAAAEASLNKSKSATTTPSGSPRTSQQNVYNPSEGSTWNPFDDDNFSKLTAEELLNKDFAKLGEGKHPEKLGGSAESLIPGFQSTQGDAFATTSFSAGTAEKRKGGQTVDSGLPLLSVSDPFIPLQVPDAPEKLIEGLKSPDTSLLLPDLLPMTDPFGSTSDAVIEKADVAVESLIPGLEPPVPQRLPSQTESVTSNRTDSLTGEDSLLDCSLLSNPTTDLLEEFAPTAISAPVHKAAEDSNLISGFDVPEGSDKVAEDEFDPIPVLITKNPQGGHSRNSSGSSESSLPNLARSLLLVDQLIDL
Sequence of protein kinases (human kinome) (Homo sapiens, UniProt P51451) (P51451 whole entry): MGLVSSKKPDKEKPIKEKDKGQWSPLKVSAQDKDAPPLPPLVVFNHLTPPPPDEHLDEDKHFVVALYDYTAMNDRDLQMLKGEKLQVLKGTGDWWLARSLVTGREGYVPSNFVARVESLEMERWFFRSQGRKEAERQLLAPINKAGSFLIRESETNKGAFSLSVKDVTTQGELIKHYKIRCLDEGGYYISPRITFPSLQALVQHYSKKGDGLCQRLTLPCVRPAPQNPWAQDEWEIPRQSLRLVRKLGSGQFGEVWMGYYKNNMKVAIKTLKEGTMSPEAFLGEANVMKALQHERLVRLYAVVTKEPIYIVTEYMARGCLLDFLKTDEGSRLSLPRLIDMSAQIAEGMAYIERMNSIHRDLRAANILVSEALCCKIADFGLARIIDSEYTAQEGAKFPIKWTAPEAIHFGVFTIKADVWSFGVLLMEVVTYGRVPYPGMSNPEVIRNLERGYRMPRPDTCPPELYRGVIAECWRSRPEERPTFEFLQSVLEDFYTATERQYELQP
Sequence of protein kinases (human kinome) (Homo sapiens, UniProt P49840) (P49840 whole entry): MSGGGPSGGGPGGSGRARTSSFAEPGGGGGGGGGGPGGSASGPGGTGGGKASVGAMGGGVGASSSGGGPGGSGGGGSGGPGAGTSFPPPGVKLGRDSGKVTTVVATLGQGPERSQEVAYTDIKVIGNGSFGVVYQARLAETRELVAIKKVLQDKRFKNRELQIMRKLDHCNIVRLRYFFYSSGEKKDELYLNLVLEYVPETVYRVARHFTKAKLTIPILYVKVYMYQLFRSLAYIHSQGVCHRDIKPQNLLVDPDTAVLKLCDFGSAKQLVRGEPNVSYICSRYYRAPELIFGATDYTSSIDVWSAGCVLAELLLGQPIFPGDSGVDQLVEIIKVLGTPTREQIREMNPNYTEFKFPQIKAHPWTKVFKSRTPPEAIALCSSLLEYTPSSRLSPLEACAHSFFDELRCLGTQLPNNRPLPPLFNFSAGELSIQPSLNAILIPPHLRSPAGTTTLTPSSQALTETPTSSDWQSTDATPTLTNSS
Sequence of protein kinases (human kinome) (Homo sapiens, UniProt P16591) (P16591 whole entry): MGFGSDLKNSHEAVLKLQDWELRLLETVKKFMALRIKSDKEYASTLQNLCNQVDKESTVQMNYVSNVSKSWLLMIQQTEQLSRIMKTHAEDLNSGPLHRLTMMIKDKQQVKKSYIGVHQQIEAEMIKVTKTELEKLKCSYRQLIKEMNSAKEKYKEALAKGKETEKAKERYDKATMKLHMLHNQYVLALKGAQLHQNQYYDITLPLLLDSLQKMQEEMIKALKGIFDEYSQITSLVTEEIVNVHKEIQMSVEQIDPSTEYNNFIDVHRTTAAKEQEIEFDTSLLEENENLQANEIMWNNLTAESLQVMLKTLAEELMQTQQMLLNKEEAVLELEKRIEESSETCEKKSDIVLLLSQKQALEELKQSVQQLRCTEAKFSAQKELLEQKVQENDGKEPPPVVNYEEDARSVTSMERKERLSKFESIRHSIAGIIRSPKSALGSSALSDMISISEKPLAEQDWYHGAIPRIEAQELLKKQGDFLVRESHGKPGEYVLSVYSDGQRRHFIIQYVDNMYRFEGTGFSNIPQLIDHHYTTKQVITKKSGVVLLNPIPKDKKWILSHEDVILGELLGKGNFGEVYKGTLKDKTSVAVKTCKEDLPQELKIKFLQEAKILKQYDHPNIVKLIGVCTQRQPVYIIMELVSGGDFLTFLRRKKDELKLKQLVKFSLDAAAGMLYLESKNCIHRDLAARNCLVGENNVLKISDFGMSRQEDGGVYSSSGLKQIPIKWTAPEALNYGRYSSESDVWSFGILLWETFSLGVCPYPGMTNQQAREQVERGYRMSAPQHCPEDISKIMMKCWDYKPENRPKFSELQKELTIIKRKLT
Sequence of protein kinases (human kinome) (Homo sapiens, UniProt P50613) (P50613 whole entry): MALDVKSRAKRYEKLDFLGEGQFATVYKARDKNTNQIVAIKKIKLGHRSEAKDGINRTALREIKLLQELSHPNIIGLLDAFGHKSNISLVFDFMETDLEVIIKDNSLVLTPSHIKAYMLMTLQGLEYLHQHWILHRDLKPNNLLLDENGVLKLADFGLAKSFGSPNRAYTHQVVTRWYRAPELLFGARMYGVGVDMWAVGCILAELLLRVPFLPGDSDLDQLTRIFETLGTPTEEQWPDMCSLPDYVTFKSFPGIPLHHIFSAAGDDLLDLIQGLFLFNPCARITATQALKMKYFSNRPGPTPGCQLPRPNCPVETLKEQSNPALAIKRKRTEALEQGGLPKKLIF
Sequence of protein kinases (human kinome) (Homo sapiens, UniProt P41240) (P41240 whole entry): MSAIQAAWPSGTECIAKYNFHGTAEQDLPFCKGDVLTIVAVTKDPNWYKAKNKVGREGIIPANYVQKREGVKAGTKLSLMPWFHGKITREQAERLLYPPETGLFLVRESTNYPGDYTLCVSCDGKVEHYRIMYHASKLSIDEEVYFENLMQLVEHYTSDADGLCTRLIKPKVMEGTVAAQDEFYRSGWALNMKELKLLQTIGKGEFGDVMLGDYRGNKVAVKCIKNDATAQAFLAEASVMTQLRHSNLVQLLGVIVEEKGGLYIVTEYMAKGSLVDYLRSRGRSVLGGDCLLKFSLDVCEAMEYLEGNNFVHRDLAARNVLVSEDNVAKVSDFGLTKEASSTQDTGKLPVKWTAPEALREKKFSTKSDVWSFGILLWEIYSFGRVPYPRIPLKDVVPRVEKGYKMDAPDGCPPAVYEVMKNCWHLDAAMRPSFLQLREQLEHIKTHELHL
Sequence of protein kinases (human kinome) (Homo sapiens, UniProt Q00537) (Q00537 whole entry): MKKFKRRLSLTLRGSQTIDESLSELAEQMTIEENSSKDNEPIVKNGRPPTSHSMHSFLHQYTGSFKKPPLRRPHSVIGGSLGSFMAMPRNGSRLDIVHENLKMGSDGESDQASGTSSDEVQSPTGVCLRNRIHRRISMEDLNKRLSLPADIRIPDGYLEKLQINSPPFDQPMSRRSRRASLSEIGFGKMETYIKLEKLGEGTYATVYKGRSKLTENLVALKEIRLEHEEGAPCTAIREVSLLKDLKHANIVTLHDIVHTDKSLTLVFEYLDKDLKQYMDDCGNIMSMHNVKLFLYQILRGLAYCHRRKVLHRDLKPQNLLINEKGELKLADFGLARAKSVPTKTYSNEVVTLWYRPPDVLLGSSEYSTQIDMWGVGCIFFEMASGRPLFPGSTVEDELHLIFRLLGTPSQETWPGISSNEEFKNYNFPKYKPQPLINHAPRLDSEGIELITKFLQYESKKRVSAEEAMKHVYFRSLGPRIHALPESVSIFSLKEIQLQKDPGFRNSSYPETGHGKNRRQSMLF
Sequence of protein kinases (human kinome) (Homo sapiens, UniProt Q00535) (Q00535 whole entry): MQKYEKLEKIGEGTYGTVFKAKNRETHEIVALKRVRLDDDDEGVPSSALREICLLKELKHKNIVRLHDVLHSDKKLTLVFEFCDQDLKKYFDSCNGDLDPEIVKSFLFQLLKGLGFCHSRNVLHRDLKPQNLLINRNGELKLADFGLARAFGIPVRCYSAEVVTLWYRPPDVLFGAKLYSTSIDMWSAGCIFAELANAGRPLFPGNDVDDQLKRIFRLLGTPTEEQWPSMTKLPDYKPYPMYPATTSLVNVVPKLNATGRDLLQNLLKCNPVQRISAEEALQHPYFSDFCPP
Sequence of protein kinases (human kinome) (Homo sapiens, UniProt Q00534) (Q00534 whole entry): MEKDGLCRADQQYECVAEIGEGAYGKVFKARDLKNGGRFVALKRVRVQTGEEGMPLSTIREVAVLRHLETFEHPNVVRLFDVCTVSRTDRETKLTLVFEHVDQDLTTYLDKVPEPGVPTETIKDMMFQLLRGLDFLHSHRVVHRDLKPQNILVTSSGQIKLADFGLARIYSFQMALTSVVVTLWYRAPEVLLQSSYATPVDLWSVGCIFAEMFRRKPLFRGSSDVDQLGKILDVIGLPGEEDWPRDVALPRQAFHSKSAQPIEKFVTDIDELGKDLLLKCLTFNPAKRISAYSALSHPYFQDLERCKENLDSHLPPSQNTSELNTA

## Nc1ncnc2c1c(-c1ccc(Oc3ccccc3)cc1)nn2[C@@H]1CCCN(C(=O)CCCN2CCN(CCNC(=O)CCOCCOCCNc3cccc4c3C(=O)N(C3CCC(=O)NC3=O)C4=O)CC2)C1 (some centres unmarked) [DD.03.119]
[1]; Accession P41240
  logFC of CSK: −1.786
[1]; CSK (P41240), down
  logFC CSK: −1.786
[2]; experiment wp047
  logFC of BLK: −1.859
[2]; Experiment wp047
  logFC of BLK (P51451): −1.859
[3]; Accession P06241-2, experiment wp047
  logFC FYN: −0.8669
[3]; Accession P12931-2, experiment wp047
  logFC of SRC: −0.6128
[3]; FYN P06241-2, experiment wp047
  logFC FYN: −0.8669
[3]; experiment wp047
  logFC LCK: −1.787
  logFC ABL2 (P42684-5): −1.047
  logFC of ABL2 (P42684-5): −1.047
  logFC LCK (P06239-3): −1.787
[3]; SRC (P12931-2) protein abundance
  logFC: −0.6128
[4]
  logFC: −2.272
[4]; direction down
  logFC: −2.272

## CC(C)S(=O)(=O)c1ccccc1Nc1nc(Nc2ccc(N3CCN(CCOCCOCCOCCNC(=O)CNc4ccc5c(c4)C(=O)N(C4CCC(=O)NC4=O)C5=O)CC3)cc2)ncc1Cl (centres unmarked) [SK.3.89]
[5]; Accession Q00537
  logFC of CDK17: −0.6057
[5]; direction of change down
  logFC CDK17 (Q00537): −0.6057
[6]
  logFC CDK4 (P11802): −0.5177
[7]
  logFC WEE1 (P30291-1): −1.017
[8]
  logFC ITK (Q08881): −2.044
[8]; direction of change down
  logFC ITK (Q08881): −2.044
[9]; AAK1 (Q2M218-1), experiment wp016, down
  logFC AAK1: −1.219
[9]; AAK1, accession Q2M218-1, experiment wp016, direction of change down
  logFC AAK1: −1.219
[10]; Experiment wp016, down
  logFC of FER (P16591-1): −2.262
[10]; FER P16591-1, experiment wp016
  logFC of FER: −2.262
[11]; CDK7 (P50613) protein abundance, degrader vs DMSO, down
  logFC: −0.7959
[11]; CDK7 P50613, experiment wp016
  logFC CDK7: −0.7959
[12]; PTK2B (Q14289-1) protein abundance, degrader vs DMSO, down
  logFC: −3.554
[12]; PTK2B, accession Q14289-1, experiment wp016, direction of change down
  logFC PTK2B: −3.554
[13]; Accession Q9NYV4-1
  logFC CDK12: −0.5237
[13]; CDK12 (Q9NYV4-1)
  logFC CDK12: −0.5237
[2]; experiment wp016
  logFC of BLK: −1.335
[2]; Experiment wp016
  logFC of BLK (P51451): −1.335
[14]; LIMK2 (P53671), down
  logFC LIMK2: −0.444
[14]; LIMK2 P53671
  logFC of LIMK2: −0.444
[3]; CDK9 (P50750-2) protein abundance
  logFC: −0.4777
[3]; experiment wp016
  logFC LCK: −0.449
  logFC CDK9 (P50750-2): −0.4777
  logFC LCK (P06239-3): −0.449
[15]; Accession Q00535
  logFC of CDK5: −0.6254
[15]; direction of change down
  logFC CDK5 (Q00535): −0.6254
[16]
  logFC: −0.3539
[16]; direction down
  logFC: −0.3539
[17]; experiment wp016
  logFC AURKA (O14965): −1.672
[18]
  logFC CDK2 (P24941-1): −0.5953
[18]; direction of change down
  logFC CDK2 (P24941-1): −0.5953
[19]; CDK6 (Q00534), direction down, experiment wp016
  logFC CDK6: −0.3396
[19]; Experiment wp016, down
  logFC of CDK6 (Q00534): −0.3396

## N#CCc1ccc(Nc2nc(NCCCNC(=O)CCCCCCNC(=O)COc3cccc4c3C(=O)N(C3CCC(=O)NC3=O)C4=O)cc(Nc3cc(C4CC4)n[nH]3)n2)cc1 (centres unmarked) [SB1.G.190]
[20]
  logFC: −0.3508
  logFC BMP2K: −0.3508
[9]; AAK1 (Q2M218-1), experiment wp056, down
  logFC AAK1: −1.489
[9]; AAK1, accession Q2M218-1, experiment wp056, direction of change down
  logFC AAK1: −1.489
[3]; Accession P49841-2, direction down
  logFC GSK3B: −0.631
[3]; GSK3B P49841-2
  logFC GSK3B: −0.631
[21]
  logFC: −0.8894
  logFC GSK3A: −0.8894
[17]; experiment wp056
  logFC AURKA (O14965): −0.843
